Like-named read-outs stand apart in the source and are kept apart here.
Key:
[1] = Cytotoxicity of glutamic acid (cell viability, cell proliferation assay kit); format: cell-based; conditions: mouse; 0-9 mM, 24 hours incubation
[2] = system: photoreceptor cells derived from the mouse retina; assay: Mitochondrial membrane potential analysis (JC-1, flow cytometer); format: cell-based; conditions: for R2 (cell distribution, JC-1 flow cytometry): normal control 13.78 ± 1.12; for R1 (cell distribution, JC-1 flow cytometry): normal control 86.22 ± 1.12
Experimental: The prepared solution was stored at −20° C. until use. In addition, 10 mg of CCCP was dissolved in 1 mL of DMSO to prepare a 50 mM CCCP solution. The prepared solution was stored at −20° C. until use. Treatment of the test material was performed after diluting with a serum-free cell culture medium in 1:1000 (v/v). The control group was treated after diluting with DMSO in 1:1000 v/v).
Intracellular mitochondrial cell membrane potential was analyzed using JC-1 reagent. […] Thereafter, […] of JC-1 was treated and incubated for 30 minutes.

[3] = system: photoreceptor cells derived from the mouse retina; assay: Cell protective effect against glutamic acid-induced cell death (cell viability); format: cell-based; conditions: n=6, read-out: EC50 (50% effective concentration), protection from glutamic acid-induced apoptosis
Experimental: (§1) Compound A to be used as a test material was prepared by dissolving in DMSO. The prepared solution was stored at −20° C. until use. In addition, 10 mg of CCCP was dissolved in 1 mL of DMSO to prepare a 50 mM CCCP solution. The prepared solution was stored at −20° C. until use. Treatment of the test material was performed after diluting with a serum-free cell culture medium in 1:1000 (v/v). The control group was treated after diluting with DMSO in 1:1000 v/v).
This experimental result means that Compound A has a protective effect against glutamic acid-induced apoptosis.

[4] = system: mouse retina-derived photoreceptor cell; assay: Immunoblot of apoptosis-related proteins in glutamic acid-treated photoreceptor cells; format: cell-based
Experimental: as §1
In order to confirm the efficacy of a test material for angiogenesis-related response and inflammatory response of a mouse retina-derived photoreceptor cell, cells cultured for 24 hours under various conditions were collected and intracellular protein was extracted by using a PRO-PREP protein extraction kit. Quantification of the extracted protein was measured using a BCA protein assay kit. 40 μg of protein was separated by 10% SDS-PAGE and then attached to a PVDF membrane. The protein-attached membrane was reacted with Tris-buffered saline with 0.1% Tween-20 (TBST) containing 5% skim milk for 30 minutes, followed by reactions of primary and secondary antibodies in sequence. The protein expression level was confirmed using photograph by a Fusion Fximage acquisition system. The protein expression level was analyzed by expressing as a relative value using ImageJ.

[5] = system: photoreceptor cells derived from mouse retina; assay: ELISA of intracellular inflammatory cytokines (TNFα, IL-1β, IL-6) in HMGB-1-treated photoreceptor cells; format: cell-based; conditions: increased by HMGB-1, 24 h
Experimental: (§2) Compound A to be used as a test material was prepared by dissolving in DMSO. The prepared solution was stored at −20° C. until use. Treatment of the test material was treated after diluting to 1:1000 (v/v) in a serum-free cell culture medium. The control group was treated after diluting to 1:1000 (v/v) in DMSO.
In order to confirm the efficacy of the test material in reactions related to angiogenesis and inflammatory response of photoreceptor cells derived from mouse retina, cells cultured for 24 hours under various conditions were recovered and intracellular proteins were extracted using a PRO-PREP protein extraction kit. Quantification of the extracted protein was measured using a BCA protein assay kit. Quantitative analysis of inflammatory cytokines (TNFα, IL-1β, IL-6) present in the cells was analyzed with each ELISA kit.

caspase 3/7 = assay: Caspase 3/7 activity assay (Caspase-Glo 3/7); format: cell-based, mouse; conditions: pretreatment 1 hour, then 5 mM glutamic acid 24 hours
Experimental: (§3) The activity of intracellular caspase 3/7 was analyzed by Caspase-Glo 3/7 assay system. […] After adding the kit solution in the same amount as the cell culture medium and reacting for 1 hour, the relative activity was analyzed by measuring the amount of generated luminescence through a microplate reader.

caspase 8 = assay: Caspase 8 activity assay (Caspase-Glo 8); format: cell-based, mouse; conditions: pretreatment 1 hour, then 5 mM glutamic acid 24 hours
Experimental: as §3, with “8” for “3/7”

[6] = system: photoreceptor cells derived from mouse retina; assay: ELISA of VEGF in medium of HMGB-1-treated photoreceptor cells; format: cell-based; conditions: increased by HMGB-1; Compound A 0.1 μM or more; 24 h
Experimental: as §2
In order to confirm the efficacy of the test material in reactions related to angiogenesis of photoreceptor cells derived from mouse retina, the medium of cells cultured for 24 hours under various conditions was collected after centrifugation. Quantitative analysis of VEGF present in the medium was analyzed with the Mouse VEGF Quantikine ELISA Kit.

[7] = system: photoreceptor cells derived from the mouse retina; assay: TUNEL assay and DAPI staining of glutamic acid-induced apoptosis; format: cell-based; conditions: pretreated 1 μM 1 hour, then 5 mM glutamic acid 8 hours; vs glutamic acid only
Experimental: as §1
Quantitative analysis of apoptosis cells was analyzed by DeadEnd™ Fluorometric TUNEL System. […] Cells were washed twice with PBS and fixed with 10% formalin for 15 minutes. Fixed cells were exposed to 0.1% Triton X-100 for 10 minutes. After the cells were reacted with dUTP containing fluorescence, the cut DNA portion was stained and then fixed on a slide with a mounting solution containing DAPI. The stained cells were observed through a fluorescence microscope.

[8] = system: photoreceptor cells derived from mouse retina; assay: Immunoblot of angiogenesis- and inflammation-related proteins in HMGB-1-treated photoreceptor cells; format: cell-based; conditions: 24 h
Experimental: as §2
In order to confirm the efficacy of the test material in reactions related to angiogenesis and inflammatory response of photoreceptor cells derived from mouse retina, cells cultured for 24 hours under various conditions were recovered and intracellular proteins were extracted using a PRO-PREP protein extraction kit. Quantification of the extracted protein was measured using a BCA protein assay kit. 40 μg of protein was separated by 10% SDS-PAGE and then attached to the PVDF membrane. The protein-attached membrane was reacted with TBST (Tris-buffered saline with 0.1% Tween-20) containing 5% skim milk for 30 minutes and the primary antibody and secondary antibody were reacted in sequence. The protein expression level was confirmed by photographing using a Fusion Fximage acquisition system. The protein expression level was analyzed by relative values using ImageJ.
In relation to high mobility group box 1 (HMGB-1), it has been reported that the expression of HMGB-1 was increased when pressure was applied to photoreceptor cells derived from the mouse retina, and when HMGB-1 was treated to photoreceptor cells, angiogenesis-related factors and inflammatory responses increase (Bohm M R et al., Lab Invest, 96, 409-427, 2016). Accordingly, in the present disclosure, the efficacy of adenosine derivatives against angiogenic response and inflammatory response according to damage to photoreceptor cells was verified based on the above reference.

[9] = system: photoreceptor cells derived from mouse retina; assay: RT-PCR mRNA expression of angiogenesis- and inflammation-related factors in HMGB-1-treated photoreceptor cells; format: cell-based; conditions: increased by HMGB-1, 6 h
Experimental: as §2
In order to confirm the efficacy of the test material in reactions related to angiogenesis and inflammatory response of photoreceptor cells derived from mouse retina, cells cultured for 6 hours under various conditions were treated with TRIzol solution to isolate total RNA in cells. After the cDNA was synthesized using specific primers for the target gene (Table 2) and reverse transcriptase in the isolated total RNA, expression of the related factors was confirmed. mRNA expression levels were analyzed by expressing as relative values using ImageJ software.

[10] = cells treated with the agent only (glutamic acid 5 mM 6 hours, or CCCP)
[11] = changed by glutamic acid, pretreated with Compound A
[12] = increased by glutamic acid, pretreated with Compound A
[13] = pretreatment of Compound A, glutamic acid-treated cells
[14] = HMGB-1 (5 μg/mL), Compound A 2 μM
[15] = HMGB-1 (5 μg/mL), Compound A at least 0.1 μM
[16] = HMGB-1 (5 μg/mL), Compound A at least 0.5 μM
[17] = increased by HMGB-1 (5 μg/mL), Compound A at least 0.5 μM
[18] = pretreated with 1 μM Compound A 1 hour, then 5 mM glutamic acid 6 hours

N[C@@H](CCC(=O)O)C(=O)O [glutamic acid]
IC50 at 24 h [1]: 5100 ± 500 µM | R2 (cell distribution, JC-1 flow cytometry) [2, 10]: 63.87 ± 10.42 | R1 (cell distribution, JC-1 flow cytometry) [2, 10]: 36.13 ± 10.42

N#CC(C#N)=NNc1cccc(Cl)c1 [CCCP]
R2 (cell distribution, JC-1 flow cytometry) [2, 10]: 90.58 ± 1.48 | R1 (cell distribution, JC-1 flow cytometry) [2, 10]: 9.42 ± 1.48

O[C@@H]1[C@H](O)CS[C@H]1n1cnc2c(NCc3cccc(Cl)c3)nc(Cl)nc21 [Compound A, (2R,3R,4S)-2-(2-chloro-6-(3-chlorobenzylamino)-9H-purin-9-yl)tetrahydrothiophene-3,4-diol]
EC50 ([3]; pretreatment for 30 min): 0.31 ± 0.08 µM | EC50 ([3]; pretreatment for 1 hour): 0.35 ± 0.06 µM | BID protein expression [4, 11]: recovered to the same expression level as the normal group | Bad protein expression [4, 11]: recovered to the same expression level as the normal group | Bcl2 protein expression [4, 11]: recovered to the same expression level as the normal group | pBad protein expression [4, 11]: recovered to the same expression level as the normal group | pBcl2 protein expression [4, 11]: recovered to the same expression level as the normal group | RIP protein expression ([4]; decreased by glutamic acid, pretreated with Compound A): increased again in a concentration-dependent manner | caspase 8 protein expression [4, 12]: significantly decreased | cleaved caspase 3 protein expression [4, 12]: significantly decreased | cleaved caspase 9 protein expression [4, 12]: significantly decreased | expression of AIF in the nucleus [4, 13]: decreased significantly | expression of cytochrome c in the cytoplasm [4, 13]: decreased significantly | amount of TNFα in cells (ELISA) ([5]; Compound A 0.1 μM or higher): significantly reduced | amount of IL-1β in cells (ELISA) ([5]; Compound A 1 μM or higher): significantly reduced | amount of IL-6 in cells (ELISA) ([5]; Compound A 1 μM or higher): significantly reduced | activity of caspase 3/7 (caspase 3/7): inhibited in a concentration-dependent manner | activity of caspase 8 (caspase 8): inhibited in a concentration-dependent manner | amount of VEGF (ELISA, medium) [6]: significantly decreased | number of TUNEL-positive nuclei [7]: significantly reduced | ANG1 protein expression [8, 14]: significantly increased | ICAM1 protein expression [8, 14]: significantly decreased | VCAM1 protein expression [8, 14]: significantly decreased | ANG2 protein expression [8, 15]: significantly decreased | MMP9 protein expression [8, 15]: significantly decreased | VEGFR1 protein expression [8, 15]: significantly decreased | COX2 protein expression [8, 16]: significantly reduced | MMP2 protein expression [8, 16]: significantly reduced | VEGF protein expression [8, 17]: significantly reduced | VEGFR2 protein expression [8, 17]: significantly reduced | COX2 mRNA expression ([9]; Compound A 0.1 μM or more): significantly inhibited | IL-6 mRNA expression ([9]; Compound A 0.1 μM or more): significantly inhibited | VEGF mRNA expression ([9]; Compound A 0.1 μM or more): significant decrease | VEGFR1 mRNA expression ([9]; Compound A 0.1 μM or more): significant decrease | MMP9 mRNA expression ([9]; Compound A 0.5 μM or more): significantly reduced | TNFα mRNA expression ([9]; Compound A 0.5 μM or more): significantly reduced | VEGFR2 mRNA expression ([9]; Compound A 0.5 μM or more): significantly decreased | ICAM1 mRNA expression ([9]; Compound A 1 μM or more): significantly reduced | MMP2 mRNA expression ([9]; Compound A 1 μM or more): significantly reduced | VCAM1 mRNA expression ([9]; Compound A 1 μM or more): significantly reduced | R2 (cell distribution, JC-1 flow cytometry) [2, 18]: 28.30 ± 1.60 | R1 (cell distribution, JC-1 flow cytometry) [2, 18]: 71.70 ± 1.60

Source: US12076334B2, “Pharmaceutical composition comprising adenosine derivative for prevention and treatment of retinal disease or optic nerve disease” (FUTURE MEDICINE CO., LTD., priority 2017, dated 2024)
